Results: paper PMC12820809 (Biomacromolecules, 2025)
Where “and” joins values, the source holds several entries; their conditions need not be identical. Identical values can stand only once.

Experiments:
[1] = in water at a concentration equivalent to 10 mg/mL of LLL12
THP-1STAT3-Luc cells = details: 72 h, concentration beyond 1.23 μg/mL
[2] = cited from earlier work
STAT3 = assay: pSTAT3 inhibition IC50, STAT3 luciferase reporter assay; assay type: cell-based, human; details: THP-1STAT3-Luc cells, 72 h treatment, then IL-6 stimulation 5 h, luminescence
[3] = system: bone marrow cells from wildtype C57BL/6 mice (M-MDSCs, dendritic cells); assay type: cell-based; details: 72 h, KR158 glioma conditioned media

NS(=O)(=O)c1cccc2c1C(=O)c1cccc(O)c1C2=O [LLL12]
Water solubility (visual) [1]: poorly soluble
Cell death (THP-1STAT3-Luc cells): ~100%
LogP [2]: 2.596
IC50 of STAT3 inhibition (STAT3): 0.31 ± 0.05 µg/mL and 0.307 µg/mL
Ly6C+ M-MDSC population compared to vehicle control ([3]; 0.4 μg/mL and 0.04 μg/mL): statistically significant reduction
CD86+ cells (APC activation) ([3]; 0.004-0.4 μg/mL): dose-dependent increase
CD11c expression (CD11c+ cells) compared to vehicle ([3]; highest concentration (0.4 μM)): statistically significant increase
